Assays:
human TOR (FLAG-TOR) = human TOR (FLAG-TOR) (Homo sapiens, UniProt P42345); assay: mTOR enzyme assay (DELFIA format, purified enzyme); assay type: biochemical; conditions: 800 ng/ml FLAG-TOR, 100 μM ATP, 1.25 μM His6-S6K; read-out: mTOR Kinase IC50
PI3Kα = PI3Kα (Homo sapiens, UniProt P42336); assay: PI3Kα fluorescence polarization assay; assay type: biochemical; conditions: 20 μM PIP2, 25 μM ATP
Experimental: The reaction buffer was 20 mM HEPES pH7.5, 2 mM MgCl2, 0.05% CHAPS, and 0.01% βME (added fresh). The substrate solution was 40 μM PIP2 (diC8, Echelon, Salt Lake City Utah cat #P-4508, 1 mM in water) and 50 μM ATP in the reaction buffer. Nunc 384-well black polypropylene fluorescent plates were used for PI3K assays. The assay is run by putting 9.5 μl of freshly diluted enzyme in the reaction buffer per well, adding 0.5 μl of diluted drug or DMSO, and mixing. Then 10 μl of the substrate solution is added to each well to start the reaction. A final concentration of 20 μM PIP2 and 25 μM ATP in the reaction was used. Reactions were allowed to proceed for 30-60 minutes at room temperature. After 30-60 minutes, 20 μl of a solution of 10 nM TAMRA detector (Red detector probe-Echelon) and 2.5 uM of GST-murine GRP (1.5 mg/ml in 17% glycerol) was added per well to stop the reaction. The resulting solution was mixed well and allowed to stand for 90-110 minutes before reading plate. Assay Plates were read on Perkin-Elmer Envision plate readers with appropriate filters for Tamra [BODIPY-TMRI(1,3,4,5)P4]. Data obtained were used to calculate enzymatic activity and enzyme inhibition by inhibitor compounds. It is important to keep Red probe solutions dark. This procedure is adapted from Echelon Biosciences Inc procedure for their PI3-Kinase fluorescence polarization activity Assay kit Product number K-1100.

[1] = tested on: LNCap prostate tumor cells; assay: In vitro cell growth assay (MTS), LNCap; assay type: cell-based, human; conditions: Homo sapiens, LNCaP, 72 h, three days after drug treatment
Experimental: (§1) Cell lines used were human adenocarcinoma (LoVo), […], prostate (LNCap), breast (MDA468, MCF7), colon (HCT116), renal (HTB44 A498), and ovarian (OVCAR3) tumor cell lines. The tumor cells were plated in 96-well culture plates at approximately 3000 cells per well. One day following plating, various concentrations of inhibitors in DMSO were added to cells (final DMSO concentration in cell assays was 0.25%). Three days after drug treatment, viable cell densities were determined by cell mediated metabolic conversion of the dye MTS, a well-established indicator of cell proliferation in vitro. Cell growth assays were performed using kits purchased from Promega Corporation (Madison, Wis.), following the protocol provided by the vendor. Measuring absorbance at 490 nm generated MTS assay results. Compound effect on cell proliferation was assessed relative to untreated control cell growth.

[2] = tested on: MDA468 breast tumor cells; assay: In vitro cell growth assay (MTS), MDA468; assay type: cell-based, human; conditions: Homo sapiens, 72 h, three days after drug treatment
Experimental: as §1

Sequence of PI3Kα (P42336 whole entry, species assumed): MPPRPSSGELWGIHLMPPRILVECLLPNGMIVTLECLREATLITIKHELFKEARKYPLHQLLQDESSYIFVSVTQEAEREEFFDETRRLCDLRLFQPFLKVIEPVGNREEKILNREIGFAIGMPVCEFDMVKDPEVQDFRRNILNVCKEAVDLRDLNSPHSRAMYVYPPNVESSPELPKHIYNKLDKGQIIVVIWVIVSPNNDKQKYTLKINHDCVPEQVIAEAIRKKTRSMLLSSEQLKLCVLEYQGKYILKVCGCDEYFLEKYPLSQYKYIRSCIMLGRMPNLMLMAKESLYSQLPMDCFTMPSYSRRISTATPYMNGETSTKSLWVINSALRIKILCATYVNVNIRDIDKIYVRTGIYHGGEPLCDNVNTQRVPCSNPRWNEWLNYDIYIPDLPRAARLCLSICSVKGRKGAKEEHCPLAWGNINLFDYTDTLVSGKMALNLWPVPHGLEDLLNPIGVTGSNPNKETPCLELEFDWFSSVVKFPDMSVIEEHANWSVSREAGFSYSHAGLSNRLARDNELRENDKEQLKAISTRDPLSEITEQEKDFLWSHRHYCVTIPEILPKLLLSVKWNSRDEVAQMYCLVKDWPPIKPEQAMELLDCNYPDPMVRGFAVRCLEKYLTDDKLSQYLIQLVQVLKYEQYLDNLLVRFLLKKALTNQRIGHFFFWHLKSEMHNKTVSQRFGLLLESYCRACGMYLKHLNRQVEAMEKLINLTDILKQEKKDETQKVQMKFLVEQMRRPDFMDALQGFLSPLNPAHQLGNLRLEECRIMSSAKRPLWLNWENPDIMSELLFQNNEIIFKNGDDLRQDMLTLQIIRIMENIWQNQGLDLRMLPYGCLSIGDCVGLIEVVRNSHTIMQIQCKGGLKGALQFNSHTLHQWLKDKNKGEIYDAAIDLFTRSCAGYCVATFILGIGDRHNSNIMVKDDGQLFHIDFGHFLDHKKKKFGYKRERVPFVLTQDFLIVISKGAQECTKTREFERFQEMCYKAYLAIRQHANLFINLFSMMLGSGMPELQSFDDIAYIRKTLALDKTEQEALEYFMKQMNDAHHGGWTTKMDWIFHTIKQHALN
Sequence of PI3Kα (P27986 whole entry partner, species assumed): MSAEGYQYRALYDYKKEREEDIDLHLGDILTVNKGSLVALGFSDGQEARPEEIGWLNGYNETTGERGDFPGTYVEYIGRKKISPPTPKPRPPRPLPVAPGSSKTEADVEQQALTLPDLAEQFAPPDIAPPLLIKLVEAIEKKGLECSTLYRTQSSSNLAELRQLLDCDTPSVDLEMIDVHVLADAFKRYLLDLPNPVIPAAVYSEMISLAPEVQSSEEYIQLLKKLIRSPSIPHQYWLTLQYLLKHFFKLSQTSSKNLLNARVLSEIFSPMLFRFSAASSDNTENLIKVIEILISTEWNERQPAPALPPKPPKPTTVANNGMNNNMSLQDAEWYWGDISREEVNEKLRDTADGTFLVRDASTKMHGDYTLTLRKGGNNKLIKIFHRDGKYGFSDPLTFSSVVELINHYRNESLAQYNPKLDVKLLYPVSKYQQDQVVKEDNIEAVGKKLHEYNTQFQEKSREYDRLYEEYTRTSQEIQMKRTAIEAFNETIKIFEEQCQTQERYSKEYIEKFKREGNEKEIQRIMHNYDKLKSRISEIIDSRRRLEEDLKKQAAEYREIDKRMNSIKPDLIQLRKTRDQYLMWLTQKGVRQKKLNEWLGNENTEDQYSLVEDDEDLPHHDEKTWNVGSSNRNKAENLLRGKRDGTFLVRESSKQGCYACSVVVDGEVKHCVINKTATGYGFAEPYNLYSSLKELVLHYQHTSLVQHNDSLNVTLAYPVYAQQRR

Compound | IC50 (human TOR (FLAG-TOR)) [µM] | IC50 (PI3Kα) [µM] | IC50 [1] [µM] | IC50 [2] [µM]
O=c1cc(Oc2cccc(NCc3cncc(F)c3)c2)c2ccccc2[nH]1 | 0.05 | 8.99 | 1.9 | 7.2
O=c1cc(Oc2cccc(NCc3ccco3)c2)c2ccccc2[nH]1 | 0.13 | 4.65 | 3.4 | 13
O=c1cc(Oc2cccc(NCc3cccs3)c2)c2ccccc2[nH]1 | 0.08 | > 10 | 5.4 | > 60
O=c1cc(Oc2ccccc2)c2ccc(-c3cn[nH]c3)cc2[nH]1 | > 20 | 2.76 | > 60 | > 60
Cn1cc(-c2ccc3c(Oc4ccccc4)cc(=O)[nH]c3c2)cn1 | > 20 | 4.63 | > 60 | > 60
O=c1cc(Oc2ccc(-c3cn[nH]c3)cc2)c2ccccc2[nH]1 | > 20 | 2.17 | 60 | 60
Cc1n[nH]c(C)c1-c1ccc(Oc2cc(=O)[nH]c3ccccc23)cc1 | 1.85 | 6.95 | > 60 | > 60
Cn1cc(-c2ccc3[nH]c(=O)cc(Oc4ccccc4)c3c2)cn1 | > 20 | > 10 | > 60 | > 60
O=c1cc(Oc2ccc(-c3cccc(O)c3)cc2)c2ccccc2[nH]1 | 0.71 | 1.66 | > 60 | > 60
O=c1cc(Oc2ccc(-c3ccncc3)cc2)c2ccccc2[nH]1 | 0.24 | 4.88 | 1.9 | > 60
Cc1ccc(Oc2cc(=O)[nH]c3ccccc23)cc1C | 0.69 | > 10 | > 60 | > 60
Nc1ccc(-c2cccc(Oc3cc(=O)[nH]c4ccccc34)c2)cc1 | 0.29 | 9.52 | 11 | 30
O=c1cc(Oc2ccccc2)c2cc(-c3cc[nH]n3)ccc2[nH]1 | 11.5 | 1.02 | > 60 | 40
CCOc1ccc(Oc2cc(=O)[nH]c3ccccc23)cc1 | > 20 | > 10 | > 60 | > 60
O=c1cc(Oc2ccc(OC(F)F)cc2)c2ccccc2[nH]1 | 1.04 | > 10 | 5.5 | > 60
O=c1cc(Oc2cccc(-c3ccncc3)c2)c2ccccc2[nH]1 | 0.37 | > 10 | 7 | 60
O=c1cc(Oc2ccccc2)c2cc(-c3cccnc3)ccc2[nH]1 | 8.5 | 7.44 | > 60 | > 60
O=c1cc(Oc2cccc(-c3cc[nH]n3)c2)c2ccccc2[nH]1 | 0.15 | 6.67 | 30 | 60
Nc1cccc(-c2cccc(Oc3cc(=O)[nH]c4ccccc34)c2)c1 | 0.17 | 5.59 | 8 | 30
O=c1cc(Oc2cccc(NCc3cccnc3)c2)c2ccccc2[nH]1 | 0.08 | > 10 | 3.2 | 9.77
CCN(CC)CCOc1cccc(Oc2cc(=O)[nH]c3ccccc23)c1 | 0.32 | > 10 | 7 | 28
COc1ncc(-c2cccc(Oc3cc(=O)[nH]c4ccccc34)c2)c(OC)n1 | 0.28 | > 10 | > 60 | 38

Compound | IC50 (human TOR (FLAG-TOR)) [µM] | IC50 (PI3Kα) [µM] | IC50 [1] [µM] | IC50 [2] [µM]
CN1CCN(c2cc(-c3cccc(Oc4cc(=O)[nH]c5ccccc45)c3)ccn2)CC1 | 0.4 | > 10 | 2.5 | 4.05
CN(C)CCCOc1ccc(-c2ccc(Oc3cc(=O)[nH]c4ccccc34)cc2)cn1 | 0.82 | > 10 | 2.1 | 3.9
CN(C)CCCNC(=O)c1cccc(-c2cccc(Oc3cc(=O)[nH]c4ccccc34)c2)c1 | 0.5 | > 10 | 4.3 | 10
Nc1cccc(Oc2cc(=O)[nH]c3cc(Cl)ccc23)c1 | 0.6 | 6.73 | 4.5 | > 60
CN(C)CCc1ccc(Oc2cc(=O)[nH]c3ccccc23)cc1 | 3.23 | > 10 | 8 | 23
O=c1cc(Oc2ccc(I)cc2)c2ccccc2[nH]1 | 0.74 | > 10 | > 60 | 18
CC(=O)Nc1ccc(-c2cccc(Oc3cc(=O)[nH]c4ccccc34)c2)cc1 | 0.22 | 3.67 | 15 | 11
O=C(NCCO)Nc1ccc(-c2cccc(Oc3cc(=O)[nH]c4ccccc34)c2)cc1 | 0.25 | 8.48 | 60 | > 60
O=C(NCCN1CCOCC1)Nc1ccc(-c2cccc(Oc3cc(=O)[nH]c4ccccc34)c2)cc1 | 0.22 | > 10 | 7 | 25
CN(C)CCNC(=O)Nc1ccc(-c2cccc(Oc3cc(=O)[nH]c4ccccc34)c2)cc1 | 0.1 | > 10 | 7 | 9
COCCNC(=O)Nc1ccc(-c2cccc(Oc3cc(=O)[nH]c4ccccc34)c2)cc1 | 0.26 | > 10 | > 60 | 60
CC(C)OC(=O)Nc1ccc(-c2cccc(Oc3cc(=O)[nH]c4ccccc34)c2)cc1 | 1.35 | > 10 | 4 | 5
CN(C)CCNC(=O)c1ccc(-c2cccc(Oc3cc(=O)[nH]c4ccccc34)c2)cc1 | 0.24 | > 10 | 6 | 12
O=C(NCCO)c1ccc(-c2cccc(Oc3cc(=O)[nH]c4ccccc34)c2)cc1 | 0.23 | > 10 | > 60 | > 60
CN(C)CCNC(=O)c1cccc(-c2cccc(Oc3cc(=O)[nH]c4ccccc34)c2)c1 | 0.32 | > 10 | 10 | 10
CC(C)(C)OCNC(=O)c1cccc(-c2cccc(Oc3cc(=O)[nH]c4ccccc34)c2)c1 | 2.38 | > 10 | 6.6 | > 60
O=c1cc(Oc2cccc(OCCO)c2)c2ccccc2[nH]1 | 0.34 | 12 | 6 | > 60
O=c1cc(Oc2cccc(-c3ccc(N4CCOCC4)cc3)c2)c2ccccc2[nH]1 | 0.49 | 10.4 | 13 | 35
O=c1cc(Oc2cccc(-c3ccc(N4CCOCC4)nc3)c2)c2ccccc2[nH]1 | 0.2 | > 10 | 12 | > 60
CC(C)(C)OC(=O)N1CCN(c2ccc(-c3cccc(Oc4cc(=O)[nH]c5ccccc45)c3)cc2)CC1 | 5.85 | 9.89 | 60 | 44
O=c1cc(Oc2cccc(-c3cccc(CN4CCOCC4)c3)c2)c2ccccc2[nH]1 | 0.6 | 6.83 | 9.5 | 30
